What was measured:
[1] = Cytotoxicity against Rattus norvegicus Sprague-Dawley (rat) astrocytes after 4 days by cresylecth violet-staining method; assay type: cell-based, Astrocyte
[2] = system: C6; assay: Cytotoxicity against Rattus norvegicus (rat) C6 cells after 4 days by cresylecth violet-staining method; assay type: functional, cell-based
[3] = system: C6; assay: Ratio of EDL-155 EC50 to compound EC50 for Rattus norvegicus (rat) C6 cells; assay type: functional
[4] = Rattus norvegicus, Sprague-Dawley, Astrocyte, 96 h, read-out: EC50

| Structure (SMILES) | EC50 [1, 4] | EC50 ([2]; Rattus norvegicus, C6, 96 h) | other results |
| --- | --- | --- | --- |
| Oc1cc(O)c2c(c1)CCNC2Cc1ccc(-c2ccccc2)cc1 (stereo not drawn) | 11.9 µM | 2.09 µM | – |
| CC(C)(C)OC(=O)N1CCc2cc(O)cc(O)c2C1Cc1ccc(Br)cc1 (stereo not drawn) | 9.97 µM | 7.04 µM | – |
| COc1cc2c(c(OC)c1)C(Cc1ccc(-c3ccccc3OC)cc1)NCC2 (stereo in doubt; (-)25) | 15.7 µM | – | EC50 ([2]; c6): 5.39 µM |
| COc1cc2c(c(OC)c1)C(Cc1ccc(-c3ccccc3)cc1)NCC2 (stereo not drawn) | 8.95 µM | 2.31 µM | – |
| O=NN(CCCl)C(=O)NCCCl [CARMUSTINE] | 54.8 µM | 4.8 µM | – |
| COc1cc2c(c(OC)c1)C(Cc1ccc(-c3ccccc3)cc1)N(C(=O)OC(C)(C)C)CC2 (stereo not drawn) | – | 7.54 µM | EC50 ([1]; astrocyte): Not Active |
| Oc1cc(O)c2c(c1)CCNC2Cc1ccc(Br)cc1 (stereo not drawn) | 23.9 µM | 12.6 µM | – |
| COc1cc2c(c(OC)c1)C(Cc1ccc(-c3ccccc3OC)cc1)N(C(=O)OC(C)(C)C)CC2 (stereo not drawn) | – | 59.7 µM | EC50 ([1]; astrocyte): Not Active |
| CC(C)(C)OC(=O)N1CCc2cc(O)cc(O)c2C1Cc1ccc(-c2ccccc2)cc1 (stereo not drawn) | 8.58 µM | 4.97 µM | – |
| COc1cc2c(c(OC)c1)C(Cc1ccc(-c3ccccc3OC)cc1)NCC2.Cl (stereo in doubt; 25) | – | – | Ratio EC50 [3]: 2.4; EC50 ([1]; astrocyte, read-out: EC50): 10.8 µM; EC50 ([2]; c6): 0.63 µM |
| COc1cc2c(c(OC)c1)C(Cc1ccc(Br)cc1)N(C(=O)OC(C)(C)C)CC2 (stereo not drawn) | 28.1 µM | 10.1 µM | – |
| Oc1cc2c(cc1O)C(Cc1ccc(-c3ccccc3)cc1)NCC2 (racemic) | 27.4 µM | 1.5 µM | – |
| Cn1nnc2c(C(N)=O)ncn2c1=O [TEMOZOLOMIDE] | 51.8 µM | 16.5 µM | – |
| COc1ccccc1-c1ccc(CC2c3c(O)cc(O)cc3CCN2C(=O)OC(C)(C)C)cc1 (stereo not drawn) | 67.5 µM | 7.34 µM | – |
| COc1ccccc1-c1ccc(CC2NCCc3cc(O)cc(O)c32)cc1 (stereo not drawn) | 15.7 µM | 2.61 µM | – |
| COc1cc2c(c(OC)c1)C(Cc1ccc(-c3ccccc3OC)cc1)NCC2 (single isomer, unassigned; (+)) | – | – | EC50 ([1]; astrocyte, read-out: EC50): 13.1 µM; EC50 ([2]; c6): 0.26 µM |

Source: ChEMBL document CHEMBL3045681, “Synthesis and evaluation of new 1,2,3,4-tetrahydroisoquinoline analogs as antiglioma agents” (Med Chem Res, 2011)
